According to PubChem BioAssay (NCI):
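Protocol summary: plate cells (96-well), add compound at 5 concentrations, incubate 48 h, interpolate endpoints linearly. GI50 is the concentration that inhibits growth by half. Definition used: TGI = concentration required for complete inhibition of growth.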

What was measured:
Experiment in all cases: NCI anticancer screen, dose series, 48 h
[1] = test system: 786-0 renal
[2] = test system: ACHN renal
[3] = test system: OVCAR-4 ovarian
[4] = test system: RPMI-8226 leukemia
[5] = test system: SK-MEL-2 melanoma
[6] = test system: SK-MEL-28 melanoma
[7] = test system: MDA-MB-231 breast
[8] = test system: MDA-MB-435
[9] = test system: T-47D breast
[10] = test system: MCF7 breast

Row | Compound | TGI [1] | TGI [2] | TGI [3] | TGI [4] | TGI [5] | TGI [6] | GI50 [1] | GI50 [2] | GI50 [7] | TGI [7] | GI50 [8] | TGI [8] | GI50 [3] | GI50 [4] | GI50 [5] | GI50 [6] | GI50 [9] | TGI [9] | GI50 [10] | TGI [10]
1 | Cc1ccc(NC(=O)/C(=N/NC(=O)CC#N)C2C(=O)N(c3ccccc3)N=C2N)cc1C (stereo unspecified) | > 100 µM | > 100 µM | > 100 µM | > 100 µM | > 100 µM | > 100 µM | – | – | – | – | – | – | – | – | – | – | – | – | – | –
2 | O=C1CC(c2ccccc2)NCN1 (stereo unspecified) | > 100 µM | > 100 µM | > 100 µM | > 100 µM | > 100 µM | > 100 µM | – | – | – | – | – | – | – | – | – | – | – | – | – | –
3 | N#C/C(=C\c1ccc(Br)cc1)n1nnc2cc(F)c(F)cc21 | 3.18 µM | 3.63 µM | 6.09 µM | 4.76 µM | 3.4 µM | 3.63 µM | 1.67 µM | 1.9 µM | 2.23 µM | 5.92 µM | 1.38 µM | 3.23 µM | 1.95 µM | 2.01 µM | 1.76 µM | 1.84 µM | 1.27 µM | 4.08 µM | – | –
4 | C=C1C(=O)O[C@H]2[C@H]1CC/C(COC(=O)N[C@@H](Cc1c[nH]c3ccccc13)C(=O)OC)=C\CC[C@@]1(C)O[C@@H]21 | 2.92 µM | 2.44 µM | 5.62 µM | 2.71 µM | 6.06 µM | 3.53 µM | 1.48 µM | 1.16 µM | 1.41 µM | 3.16 µM | 1.49 µM | 3.25 µM | 2.03 µM | 0.527 µM | 2.21 µM | 1.66 µM | 1.84 µM | 4.39 µM | – | –
5 | CC(=O)O[C@H]1C(=O)[C@@]2(C)[C@H]([C@H](OC(=O)c3ccccc3)[C@]3(O)C[C@H](OC(=O)[C@H](OC(=O)CCC(=O)OC4CCC(S/N=C(N)/N=C(\N)N(C)C)CC4)[C@@H](NC(=O)c4ccccc4)c4ccccc4)C(C)=C1C3(C)C)[C@]1(OC(C)=O)CO[C@@H]1C[C@@H]2O (stereo partly specified) | > 50 µM | > 50 µM | > 50 µM | > 43.5 µM | – | > 50 µM | 0.115 µM | 0.11 µM | 0.0249 µM | > 31.4 µM | – | – | 0.0444 µM | 0.00605 µM | – | 8.57 µM | 0.0139 µM | > 50 µM | < 0.005 µM | > 50 µM
6 | N#CC(c1ccc(Cl)cc1)c1cccc(Cl)n1 (stereo unspecified) | > 100 µM | > 100 µM | > 100 µM | > 100 µM | > 100 µM | > 100 µM | – | – | – | – | – | – | – | – | – | – | – | – | – | –
7 | CCN(CC)CCCC(C)N/C(c1cccc(OC)c1)=c1\c(=O)[nH]n(-c2c3ccccc3nc3ccccc23)c(=O)\c1=C(/NC(C)CCCN(CC)CC)c1cccc(OC)c1 (stereo unspecified) | 3.04 µM | 2.35 µM | 4.11 µM | 5.06 µM | – | 3.17 µM | 1.17 µM | 0.508 µM | 1.25 µM | 3.26 µM | 1.45 µM | 2.98 µM | 1.22 µM | 2.08 µM | – | 1.69 µM | 2.16 µM | 5.97 µM | 0.507 µM | 3.41 µM
8 | O[C@H]1[C@H]2[C@H](O)CCCN2C[C@H]1O | > 100 µM | > 100 µM | > 100 µM | > 100 µM | > 100 µM | > 100 µM | – | – | – | – | – | – | – | – | – | – | – | – | – | –
9 | NC1=NN(c2ccccc2)C(=O)C1C(=O)C(=O)Nc1cccc(C(F)(F)F)c1 (stereo unspecified) | > 100 µM | > 100 µM | > 100 µM | > 100 µM | > 100 µM | – | – | – | – | – | – | – | – | – | – | – | – | – | – | –
10 | CCC[C@H](Nc1nc(-c2ccc(NC(=O)NCC)c(OC)c2)ncc1C)c1cccnc1 | 12.6 µM | 35.2 µM | 41.8 µM | 15.1 µM | 20.7 µM | > 61.6 µM | 0.0453 µM | 0.0721 µM | 0.0372 µM | 1.72 µM | 0.0219 µM | 0.0533 µM | 0.0691 µM | 0.037 µM | 0.0477 µM | 1.14 µM | – | – | 0.0365 µM | 29.6 µM
11 | C/C(=N\[N+](C)(C)C)C(c1ccccc1)C1(c2ccccc2)C(c2ccccc2)=C1c1ccccc1 (stereo unspecified) | > 100 µM | > 100 µM | > 100 µM | > 100 µM | > 100 µM | – | – | – | – | – | – | – | – | – | – | – | – | – | – | –
12 | CC(=O)Oc1cc2c(=O)oc3c(OC(C)=O)c(OC(C)=O)c(OC(C)=O)c4c(=O)oc(c1OC(C)=O)c2c34 | > 100 µM | > 100 µM | > 100 µM | > 100 µM | > 100 µM | > 100 µM | – | – | – | – | – | – | – | – | – | – | – | – | – | –
13 | CCCN1C(=O)/C(=C/c2ccc(O)cc2)SC1=Nc1ccccc1 | 36.9 µM | 34.9 µM | 49.5 µM | – | > 100 µM | 50.9 µM | 20.5 µM | 18.2 µM | 16 µM | 36.6 µM | 21.6 µM | 41.5 µM | 25.2 µM | – | 51 µM | 27.7 µM | 22.5 µM | 50.8 µM | – | –
14 | COC1=CC(C)C2C[C@H]3O[C@H](O)C[C@H]4C(C)C(=O)C(O)C([C@@]2(C)C1=O)[C@@]34C (stereo partly specified) | > 100 µM | > 100 µM | – | > 100 µM | – | > 100 µM | – | – | – | – | – | – | – | – | – | – | – | – | – | –
15 | O=C(/C=C\c1cccc2ccccc12)c1ccc(Br)cc1 | 33.7 µM | 31.2 µM | 35.5 µM | 45.9 µM | – | 27.7 µM | – | – | – | – | – | – | – | – | – | – | – | – | – | –
16 | COc1ccc(/C(Cl)=C(\C=O)c2cc(OC)c(OC)c(OC)c2)cc1OC | > 100 µM | > 100 µM | > 100 µM | 77 µM | > 90.5 µM | > 100 µM | – | – | – | > 100 µM | – | > 100 µM | – | – | – | – | – | > 100 µM | – | –

Row | Compound | TGI [1] | TGI [2] | TGI [3] | TGI [4] | TGI [5] | TGI [6] | GI50 [1] | GI50 [2] | GI50 [7] | TGI [7] | GI50 [8] | TGI [8] | GI50 [3] | GI50 [4] | GI50 [5] | GI50 [6] | GI50 [9] | TGI [9] | GI50 [10] | TGI [10]
17 | C/C=C/CP(=O)(c1ccccc1)c1ccccc1 | > 100 µM | > 100 µM | > 100 µM | > 100 µM | > 100 µM | > 100 µM | – | – | – | – | – | – | – | – | – | – | – | – | – | –
18 | c1cc2[se][se]c3c4cccc5[se][se]c(c(c1)c23)c54 | > 100 µM | > 100 µM | > 100 µM | > 100 µM | > 100 µM | > 100 µM | – | – | – | – | – | – | – | – | – | – | – | – | – | –
19 | CC(=O)[CH-]C(C)=O.CC(=O)[CH-]C(C)=O.CC(=O)[CH-]C(C)=O.[Cl-].[Hf+4] | > 100 µM | > 100 µM | > 100 µM | > 100 µM | > 100 µM | > 100 µM | > 100 µM | > 100 µM | – | – | – | – | > 100 µM | > 100 µM | > 100 µM | > 100 µM | – | – | – | –
20 | O=C(Nc1ccc(N=Nc2ccccc2)cc1)Sc1ccccc1C(=O)O | > 100 µM | > 100 µM | > 100 µM | > 100 µM | > 100 µM | > 100 µM | – | – | – | – | – | – | – | – | – | – | – | – | – | –
21 | N#Cc1c(SCc2ccccc2)nc2[nH]c(=S)[nH]c(=S)c2c1-c1ccco1 | > 100 µM | > 100 µM | > 100 µM | 13.9 µM | > 100 µM | > 100 µM | 42.6 µM | > 100 µM | 39.9 µM | 71.3 µM | 59.5 µM | > 100 µM | > 100 µM | 2.22 µM | > 100 µM | > 100 µM | – | – | 28.4 µM | > 100 µM
22 | Cc1ccc(C2=NN(C)COC2C(F)(F)F)cc1 (stereo unspecified) | > 100 µM | > 100 µM | > 100 µM | > 100 µM | > 100 µM | > 100 µM | – | – | – | – | – | – | – | – | – | – | – | – | – | –
23 | COc1ccc(C(=O)O)c2c(=O)c3ccccc3[nH]c12 | > 100 µM | > 100 µM | > 100 µM | > 100 µM | > 100 µM | > 100 µM | – | – | – | – | – | – | – | – | – | – | – | – | – | –
24 | CCN(CC)CCCN1C(=O)c2c(c(C)c3c(oc4cc(O)ccc43)c2C)C1=O | 3.43 µM | 3.05 µM | 3.55 µM | 4.17 µM | 32.6 µM | 3.4 µM | 1.8 µM | 1.68 µM | 1.81 µM | 3.47 µM | 1.76 µM | 3.22 µM | 1.84 µM | 1.93 µM | 15.7 µM | 1.83 µM | 1.85 µM | 3.8 µM | – | –
25 | COc1cc2c(cc1OCCCCCN1CCN(c3cc(=O)oc4c(C)c(OC)ccc34)CC1)N=C[C@@H]1CCCN1C2=O | – | 0.256 µM | 0.189 µM | < 0.0118 µM | < 0.0175 µM | 0.163 µM | < 0.01 µM | 0.0434 µM | – | – | < 0.0112 µM | 0.0262 µM | < 0.0178 µM | < 0.01 µM | < 0.01 µM | < 0.0235 µM | < 0.0174 µM | – | < 0.01 µM | 3.43 µM
26 | CC1CC(C)C(=O)C(C(=O)CC2CC(=O)NC2=O)C1 (stereo unspecified) | > 100 µM | > 100 µM | > 100 µM | > 100 µM | – | > 100 µM | – | – | – | – | – | – | – | – | – | – | – | – | – | –
27 | O=C(O/N=C1/CCC/C1=C\c1ccccc1)c1ccccc1 | > 100 µM | > 100 µM | > 100 µM | > 100 µM | > 100 µM | > 100 µM | – | – | – | – | – | – | – | – | – | – | – | – | – | –
28 | N#Cc1c(C(N)=O)ncn1Cc1ccccc1 | > 100 µM | > 100 µM | > 100 µM | > 100 µM | > 100 µM | – | – | – | – | – | – | – | – | – | – | – | – | – | – | –
29 | O=C(CC1(O)C(=O)Nc2ccccc21)c1ccc(O)cc1O (stereo unspecified) | > 100 µM | > 100 µM | > 100 µM | > 100 µM | > 100 µM | > 100 µM | – | – | – | – | – | – | – | – | – | – | – | – | – | –
30 | Cn1cc(C(=O)/C(Cl)=C(\Cl)C(=O)O)c2ccccc21 | > 100 µM | > 100 µM | > 100 µM | > 100 µM | > 100 µM | > 100 µM | – | – | – | – | – | – | – | – | – | – | – | – | – | –
31 | CC1(C)OC(=O)C=C(O)O1.CC1(C)OC(=O)C=C(O)O1.CCO.Oc1ccc2c(c1)CCC2.[Ti] | > 100 µM | > 100 µM | > 100 µM | > 100 µM | > 100 µM | > 100 µM | > 100 µM | > 100 µM | – | – | – | – | > 100 µM | > 100 µM | > 100 µM | > 100 µM | – | – | – | –
